Results published in PMC8536124 (International Journal of Molecular Sciences, 2021).
Read-outs that look alike come from different tables or passages of the source.

Legend:
Assay type in all cases: cell-based, human
HL-60(TB) = test: NCI-60 screening (SRB)
RPMI-8226 = test: NCI-60 screening (SRB); conditions: five-dose
A549/ATCC = test: NCI-60 screening (SRB); conditions: five-dose
NCI-H226 = test: NCI-60 screening (SRB); conditions: five-dose
NCI-H322M = test: NCI-60 screening (SRB); conditions: five-dose
NCI-H460 = test: NCI-60 screening (SRB); conditions: five-dose
NCI-H522 = test: NCI-60 screening (SRB); conditions: five-dose
COLO 205 = test: NCI-60 screening (SRB); conditions: five-dose
HCC-2998 = test: NCI-60 screening (SRB); conditions: five-dose
HCT-116 = test: NCI-60 screening (SRB); conditions: five-dose
HT29 = test: NCI-60 screening (SRB)
SF-268 = test: NCI-60 screening (SRB); conditions: five-dose
LOX IMVI = test: NCI-60 screening (SRB); conditions: LOX IMVI, five-dose
MDA-MB-435 = test: NCI-60 screening (SRB); conditions: five-dose
SK-MEL-28 = test: NCI-60 screening (SRB); conditions: five-dose
UACC-257 = test: NCI-60 screening (SRB); conditions: five-dose
IGROV1 = test: NCI-60 screening (SRB)
OVCAR-3 = test: NCI-60 screening (SRB); conditions: five-dose
OVCAR-5 = test: NCI-60 screening (SRB); conditions: five-dose
A498 = test: NCI-60 screening (SRB); conditions: A498, five-dose
ACHN = test: NCI-60 screening (SRB); conditions: five-dose
RXF 393 = test: NCI-60 screening (SRB); conditions: five-dose
TK-10 = test: NCI-60 screening (SRB); conditions: five-dose
UO-31 = test: NCI-60 screening (SRB); conditions: five-dose
BT-549 = test: NCI-60 screening (SRB); conditions: five-dose
[1] = system: NCI-60 cancer cell line panel; test: NCI-60 screening (SRB), full panel; conditions: for activity at 10 µM: 60 cell lines, 48 h
From the text: The experimental data allow the assessment of the cytostatic effect, indicated by growth inhibition values ranging between 0 and 100, as well as of the cytotoxic effect, indicated by negative values.
The mean GI50 (molar concentration of the compound that inhibits 50% net cell growth), TGI (molar concentration of the compound leading to the total inhibition), and LC50 (molar concentration of the compound leading to 50% net cell death (presented in negative logarithm)) values across each cell line are shown in Table 2.
The selectivity index (SI), calculated as the ratio between the full panel MG_MID60 (μM) of compounds 4, 6, and 9 by their respective subpanels MG_MID of the cell line (μM), was introduced as a quantification tool for the selectivity of each compound in terms of anticancer effect (Table 3).
Primary anticancer assays were performed according to the NCI protocol, as described elsewhere (see e.g., http://dtp.nci.nih.gov accessed on 1 November 2018). The compounds were added at a single concentration, and the cell cultures were incubated for 48 h. The end point determinations were made with a protein-binding dye, sulforhodamine B (SRB). […] The percentage of growth was evaluated spectrophotometrically versus controls not treated with test agents after 48 h exposure and using SRB protein assay to estimate cell viability or growth. Three antitumor activity dose-response parameters were calculated for each cell line. Furthermore, mean graph midpoints (MG_MID) were calculated for each of the parameters, giving an average activity parameter over all cell lines for the tested compound. For the MG_MID calculation, insensitive cell lines were included with the highest concentration tested.

[2] = HL-60(TB) (Leukemia), 1 dose 10 µM
[3] = Homo sapiens, read-out: LC50 (the source's name)

CCN1CCN(C(=O)[C@]23CC[C@@H](C)[C@H](C)[C@H]2C2=CC[C@@H]4[C@@]5(C)C/C(=C/c6cccnc6)C(=O)C(C)(C)[C@@H]5CC[C@@]4(C)[C@]2(C)CC3)CC1 [Compound 9, N-(2-{3-Pyridinylidene}-3-oxoursan-12-en-28-oyl)-ethylpiperazine]
Growth % (HL-60(TB); [2]): −38.20%
cell death (HL-60(TB); [2]): 38.20%
TGI (HL-60(TB); HL-60(TB), five-dose): 8.97 µM
GI50 (HL-60(TB); Homo sapiens, HL-60(TB), five-dose): 2.78 µM
CC50 (HL-60(TB); Homo sapiens, HL-60(TB), five-dose, read-out: LC50 (the source's name)): > 100 µM
GI50 (RPMI-8226; Homo sapiens): 2.45 µM
CC50 (RPMI-8226; [3]): > 100 µM
TGI (RPMI-8226): 7.38 µM
GI50 (A549/ATCC; Homo sapiens): 3.15 µM
CC50 (A549/ATCC; [3]): > 100 µM
TGI (A549/ATCC): 16.8 µM
GI50 (NCI-H226; Homo sapiens): 1.89 µM
CC50 (NCI-H226; [3]): 8.78 µM
TGI (NCI-H226): 4.07 µM
GI50 (NCI-H322M; Homo sapiens): 2.28 µM
CC50 (NCI-H322M; [3]): 28.8 µM
TGI (NCI-H322M): 8.27 µM
GI50 (NCI-H460; Homo sapiens): 1.78 µM
CC50 (NCI-H460; [3]): 6.69 µM
TGI (NCI-H460): 3.45 µM
GI50 (NCI-H522; Homo sapiens): 1.66 µM
TGI (NCI-H522): 3.86 µM
GI50 (COLO 205; Homo sapiens): 2.19 µM
CC50 (COLO 205; [3]): > 100 µM
TGI (COLO 205): 5.12 µM
GI50 (HCC-2998; Homo sapiens): 1.55 µM
CC50 (HCC-2998; [3]): 5.79 µM
TGI (HCC-2998): 3.00 µM
GI50 (HCT-116; Homo sapiens): 1.69 µM
CC50 (HCT-116; [3]): 7.43 µM
TGI (HCT-116): 3.55 µM
GI50 (HT29; Homo sapiens, HT-29, five-dose): 1.93 µM
CC50 (HT29; Homo sapiens, HT-29, five-dose, read-out: LC50 (the source's name)): > 100 µM
TGI (HT29; five-dose): 5.36 µM
GI50 (SF-268; Homo sapiens): 1.77 µM
CC50 (SF-268; [3]): 9.15 µM
TGI (SF-268): 4.02 µM
GI50 (LOX IMVI; Homo sapiens): 1.58 µM
CC50 (LOX IMVI; [3]): 5.91 µM
TGI (LOX IMVI): 3.06 µM
GI50 (MDA-MB-435; Homo sapiens): 1.7 µM
CC50 (MDA-MB-435; [3]): 7.18 µM
TGI (MDA-MB-435): 3.49 µM
GI50 (SK-MEL-28; Homo sapiens): 1.74 µM
CC50 (SK-MEL-28; [3]): 5.69 µM
TGI (SK-MEL-28): 3.15 µM
GI50 (UACC-257; Homo sapiens): 2.21 µM
CC50 (UACC-257; [3]): > 100 µM
TGI (UACC-257): 5.95 µM
GI50 (IGROV1; Homo sapiens, IGROV-1, five-dose): 1.89 µM
CC50 (IGROV1; Homo sapiens, IGROV-1, five-dose, read-out: LC50 (the source's name)): 7.94 µM
TGI (IGROV1; five-dose): 3.87 µM
GI50 (OVCAR-3; Homo sapiens): 1.65 µM
CC50 (OVCAR-3; [3]): 6.17 µM
TGI (OVCAR-3): 3.19 µM
GI50 (OVCAR-5; Homo sapiens): 1.54 µM
CC50 (OVCAR-5; [3]): 5.57 µM
TGI (OVCAR-5): 2.93 µM
TGI (A498): 4.05 µM
GI50 (A498; Homo sapiens): 1.9 µM
CC50 (A498; [3]): 8.65 µM
GI50 (ACHN; Homo sapiens): 2.46 µM
LC50 (ACHN; Homo sapiens): 22.6 µM
TGI (ACHN): 6.45 µM
GI50 (RXF 393; Homo sapiens): 1.45 µM
CC50 (RXF 393; [3]): 5.53 µM
TGI (RXF 393): 2.83 µM
GI50 (TK-10; Homo sapiens): 2.87 µM
CC50 (TK-10; [3]): 59.3 µM
TGI (TK-10): 9.40 µM
GI50 (UO-31; Homo sapiens): 1.36 µM
CC50 (UO-31; [3]): 5.19 µM
TGI (UO-31): 2.65 µM
GI50 (BT-549; Homo sapiens): 1.69 µM
TGI (BT-549): 3.59 µM
Positive Cytostatic Effect (cell lines with percent growth 0 to 50 / total) ([1]; 1 dose 10 µM): 33/59
Positive Cytotoxic Effect (cell lines with percent growth <0 / total) ([1]; 1 dose 10 µM): 5/59
GI50 ([1]; Homo sapiens, five-dose, bound, read-out: GI50 against all human tumor cells): < 4 µM
GI50 ([1]; Homo sapiens, mean graph midpoint, full panel, five-dose, read-out: GI50 MG_MID60): 1.93 µM
CC50 ([1]; Homo sapiens, mean graph midpoint, full panel, five-dose, read-out: LC50 MG_MID60): 38 µM
activity at 10 µM ([1]; Homo sapiens, 1 dose 10 µM, read-out: Mean Growth, %): 25.3%
activity at 10 µM ([1]; Homo sapiens, 1 dose 10 µM, read-out: Range of Growth, %): -38.2 to 65.7%
TGI MG_MID60 ([1]; mean graph midpoint, full panel, five-dose): 5.29 µM
selectivity class ([1]; toward some individual cell lines at the LC50 level): moderate selectivity (Ratios between 3 and 6 are indicators of moderate selectivity)
